Data reported in patent publication USRE39420E1, “1,2-Diphenylpyrrole derivatives, their preparation and their therapeutic uses” (Sankyo Company, Limited, priority 1996, dated 2006).

Assays:
[1] = molecular target: T1, Cyclooxygenase-1 from Ram Seminal Vesicle Microsomes (RSVM) (Ovis aries, UniProt P05979); assay: Inhibitory activity on cyclooxygenase-1 from ram seminal vesicle microsomes (PGE2 ELISA); format: biochemical; settings: PGE2 formation, read-out: Inhibitory Effect on COX-1[IC50(μM)]
T1 construct: ram seminal vesicles were homogenised by a blender; from tissue; host or cells: ram seminal vesicles (microsomes)
T1 sequence (P05979 25-600): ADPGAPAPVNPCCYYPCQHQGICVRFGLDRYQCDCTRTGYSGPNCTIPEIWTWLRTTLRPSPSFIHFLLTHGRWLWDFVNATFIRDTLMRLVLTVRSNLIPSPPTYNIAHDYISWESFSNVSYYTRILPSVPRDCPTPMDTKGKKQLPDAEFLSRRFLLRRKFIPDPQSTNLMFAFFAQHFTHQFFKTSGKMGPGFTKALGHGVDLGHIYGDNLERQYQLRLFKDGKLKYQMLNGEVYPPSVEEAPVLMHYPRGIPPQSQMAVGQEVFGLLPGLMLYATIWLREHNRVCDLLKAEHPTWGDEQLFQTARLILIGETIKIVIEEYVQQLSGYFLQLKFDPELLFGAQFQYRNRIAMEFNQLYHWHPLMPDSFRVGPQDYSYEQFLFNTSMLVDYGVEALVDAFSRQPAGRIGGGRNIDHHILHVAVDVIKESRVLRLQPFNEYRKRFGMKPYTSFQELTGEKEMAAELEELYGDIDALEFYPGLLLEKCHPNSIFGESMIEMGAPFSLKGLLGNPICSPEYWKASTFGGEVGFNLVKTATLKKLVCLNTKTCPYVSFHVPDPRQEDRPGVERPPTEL
Experimental: (§1) In order to prepare cyclooxygenase-1 (COX-1) microsomes, ram seminal vesicles were homogenised by a blender. To prepare cyclooxygenase-2 (COX-2) microsomes, an expression vector which contains the human COX-2 gene was introduced into COS cells. The cells were homogenised by sonication after 66 hours cultivation. Microsomes were then prepared in accordance with conventional methods. Enzyme activity was assayed as follows. The assay mixture contained 10 μl of COX-1 or COX-2 microsomes (5 to 15 μg), 2 μl of sample dissolved in dimethyl sulfoxide, 50 μl of 200 mM Tris (pH 7.6), 10 μl of 20 mM reduced glutathione, 10 μl of 10 mM epinephrine, and 15.5 μl of distilled water. After preincubation at 37° C. for 15 minutes, 2.5 μl of 10 μM arachidonic acid (dissolved in ethanol) were then added to the mixture (final volume of 100 μl) and allowed to react at 37° C. for 30 minutes. The final dimethyl sulfoxide and ethanol concentrations were 2% and 2.5%, respectively. To the reaction mixture were then added 15 μl of ice-cooled 0.2M HCl to stop the reaction, and the mixture was cooled at 4° C. for 5 minutes. 15 μl of a 0.2M aqueous solution of sodium hydroxide were then added to the reaction mixture to neutralise the pH. The amount of PGE2, in the reaction mixture was measured using a commercially available ELISA kit (Cayman). IC50 was calculated from the regression line determined by the inhibition rates of PGE2 formation and the concentrations of the compound.

[2] = molecular target: T2, Human Recombinant Cyclooxygenase-2 (Homo sapiens, UniProt P35354); assay: Inhibitory activity on human recombinant cyclooxygenase-2 microsomes from COS cells (PGE2 ELISA); format: biochemical; settings: for IC50: human recombinant COX-2 microsomes, PGE2 formation, read-out: Inhibitory Effect on COX-2 [IC50 (μM)]
T2 construct: made in house; host or cells: COS cells (transient expression; microsomes prepared after 66 hours)
T2 sequence (P35354 18-604): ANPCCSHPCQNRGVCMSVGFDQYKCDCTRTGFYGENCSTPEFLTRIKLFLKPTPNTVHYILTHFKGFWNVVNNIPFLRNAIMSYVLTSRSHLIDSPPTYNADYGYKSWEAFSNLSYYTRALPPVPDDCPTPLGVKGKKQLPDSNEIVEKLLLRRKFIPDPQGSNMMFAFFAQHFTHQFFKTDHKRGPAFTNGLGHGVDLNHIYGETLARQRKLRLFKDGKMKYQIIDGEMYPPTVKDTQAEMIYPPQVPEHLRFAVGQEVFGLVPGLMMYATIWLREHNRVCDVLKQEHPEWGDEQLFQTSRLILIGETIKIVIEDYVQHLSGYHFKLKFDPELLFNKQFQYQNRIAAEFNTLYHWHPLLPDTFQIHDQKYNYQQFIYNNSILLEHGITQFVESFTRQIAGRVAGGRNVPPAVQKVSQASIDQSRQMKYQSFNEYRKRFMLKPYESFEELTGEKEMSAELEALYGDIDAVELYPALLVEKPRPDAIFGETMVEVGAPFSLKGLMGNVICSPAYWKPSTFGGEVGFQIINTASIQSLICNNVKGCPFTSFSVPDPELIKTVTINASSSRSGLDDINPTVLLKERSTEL
Experimental: In order to prepare cyclooxygenase-1 (COX-1) microsomes, ram seminal vesicles were homogenised by a blender. To prepare cyclooxygenase-2 (COX-2) microsomes, an expression vector which contains the human COX-2 gene was introduced into COS cells. The cells were homogenised by sonication after 66 hours cultivation. Microsomes were then prepared in accordance with conventional methods.
Enzyme activity was assayed as follows.
as §1, with “The” for “In order to prepare cyclooxygenase-1 (COX-1) microsomes, ram seminal vesicles were homogenised by a blender. To prepare cyclooxygenase-2 (COX-2) microsomes, an expression vector which contains the human COX-2 gene was introduced into COS cells. The cells were homogenised by sonication after 66 hours cultivation. Microsomes were then prepared in accordance with conventional methods. Enzyme activity was assayed as follows. The”

[3] = system: Carrageenan-induced Paw Edema in rats; assay: Carrageenan-induced paw edema test; format: in vivo, Wistar-Imamichi rats; settings: Rattus norvegicus, oral, 3 hours after carrageenan, read-out: Inhibition Rate (%)
Outline: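 Male Wistar-Imamichi rats (6 weeks, 110-120 g), fasted 16 h, dosed orally 30 min before subplantar injection of 1% carrageenan into right hind paw. Paw volume measured by plethysmometer before dosing and 3 h after carrageenan; edema intensity = (volume at 3 h/volume before injection) − 1.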

Row | IC50 [1] [µM] | IC50 [2] [µM] | Selectivity (COX-1/COX-2) ([2]; ratio of IC50 COX-1/COX-2) | Compound | inhibition in vivo at 50 mg/kg [3] [%]
1 | > 100 | 0.016 | >6250 | COc1ccc(-c2cc(C)cn2-c2ccc(S(N)(=O)=O)cc2)cc1 [Example 52, 2-(4-Methoxyphenyl)-4-methyl-1-(4-sulfamoylphenyl)pyrrole] | 65
2 | > 100 | > 100 | – | Cc1ccc(-c2ccccc2)n1-c1ccc(S(N)(=O)=O)cc1 [Compound A, 5-methyl-2-phenyl-1-(4-sulfamoylphenyl)pyrrole, reference compound] | 14
